Experimental data published in PubChem BioAssay (NCI).
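Assay format: 96-well plates, 48-hour exposure. GI50: concentration for 50% inhibition of growth. TGI: total growth inhibition.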

Columns and labels:
Assay in all cases: NCI tumour cell line growth inhibition, 48 h
SNB-75 CNS = tested on: SNB-75 CNS
UO-31 renal = tested on: UO-31 renal
OVCAR-3 ovarian = tested on: OVCAR-3 ovarian
HCT-116 colon = tested on: HCT-116 colon
HOP-62 NSCLC = tested on: HOP-62 NSCLC
K-562 leukemia = tested on: K-562 leukemia
UACC-257 melanoma = tested on: UACC-257 melanoma
NCI-H522 lung = tested on: NCI-H522 lung
NCI-H23 lung = tested on: NCI-H23 lung
HS 578T breast = tested on: HS 578T breast

Compound | TGI (SNB-75 CNS) | TGI (UO-31 renal) | TGI (OVCAR-3 ovarian) | TGI (HCT-116 colon) | TGI (HOP-62 NSCLC) | TGI (K-562 leukemia) | TGI (UACC-257 melanoma) | TGI (NCI-H522 lung) | TGI (NCI-H23 lung) | GI50 (UO-31 renal) | GI50 (OVCAR-3 ovarian) | GI50 (HS 578T breast) | TGI (HS 578T breast) | GI50 (HCT-116 colon) | GI50 (HOP-62 NSCLC) | GI50 (K-562 leukemia) | GI50 (UACC-257 melanoma) | GI50 (NCI-H522 lung) | GI50 (NCI-H23 lung)
CCN(CC)C(=O)CNC(=O)OC(C)(C)C | > 100 µM | > 100 µM | > 100 µM | > 100 µM | > 100 µM | > 100 µM | > 100 µM | > 100 µM | > 100 µM | – | – | – | – | – | – | – | – | – | –
COc1cc([C@@H]2c3cc4c(cc3[C@@H](NCc3ccc(C#N)cc3)C3COC(=O)[C@@H]32)OCO4)cc(OC)c1O (stereo not given in full) | 3.25 µM | 4.34 µM | 5.51 µM | 11.8 µM | 1.41 µM | 15.9 µM | 33.9 µM | 2.83 µM | 1.43 µM | – | – | – | – | – | – | – | – | – | –
Cc1[nH]c2ccccc2c1C1CC(=O)NC1=O (stereo not given) | > 100 µM | > 100 µM | > 100 µM | > 100 µM | > 100 µM | > 100 µM | > 100 µM | – | > 100 µM | – | – | – | – | – | – | – | – | – | –
CCC(O)(c1ccc(OC)cc1)C(c1ccc(OCc2ccccc2)cc1)c1ccc(OCc2ccccc2)cc1 (stereo not given) | > 100 µM | > 100 µM | > 100 µM | > 100 µM | > 100 µM | > 100 µM | > 100 µM | > 100 µM | > 100 µM | – | – | – | – | – | – | – | – | – | –
CC(C(=O)c1ccccc1)C1(O)C(=O)Nc2ccccc21 (stereo not given) | > 100 µM | > 100 µM | > 100 µM | > 100 µM | > 100 µM | > 100 µM | > 100 µM | > 100 µM | > 100 µM | – | – | – | – | – | – | – | – | – | –
C/C(=N\NS(=O)(=O)c1ccc(C)cc1)c1c(O)cc(C)oc1=O | > 100 µM | > 100 µM | – | > 100 µM | > 100 µM | > 100 µM | > 100 µM | – | > 100 µM | – | – | – | – | – | – | – | – | – | –
C[C@]12CC(C#N)C(=O)C(O)=C1CC[C@@H]1C2CC[C@@]2(C)C1CC[C@@H]2O (stereo not given in full) | 63.1 µM | 87.3 µM | > 100 µM | > 100 µM | > 100 µM | > 100 µM | > 100 µM | – | > 100 µM | – | – | – | – | – | – | – | – | – | –
NC1=NC(c2ccccc2)CC(c2cc(Cl)cc(Br)c2O)=N1 (stereo not given) | 28.3 µM | 32.3 µM | 30.2 µM | 25.8 µM | 25.1 µM | 17.4 µM | 36.2 µM | 15.4 µM | 26 µM | – | – | – | – | – | – | – | – | – | –
O=C(N/C(=C\c1ccc([N+](=O)[O-])cc1)c1nc2ccc(Cl)cc2[nH]1)c1ccccc1 | – | 33.5 µM | 52 µM | – | – | 52.7 µM | – | 27.8 µM | 44.6 µM | – | – | – | – | – | – | – | – | – | –
CC1Cc2c(N)nc(N3CCOCC3)nc2NC1=O (stereo not given) | > 100 µM | > 100 µM | > 100 µM | > 100 µM | > 100 µM | > 100 µM | > 100 µM | > 100 µM | > 100 µM | – | – | – | – | – | – | – | – | – | –
CC1(C)CCC2(C(=O)O)CC[C@]3(C)C(=CCC4C5(C)CC[C@H](OC6OC(C(=O)O)C(O)C(OC7OC(CO)C(O)C(O)C7O)C6OC6OC(CO)C(O)C(O)C6O)C(C)(C)C5CCC43C)C2C1 (stereo not given in full) | – | > 100 µM | > 100 µM | > 100 µM | > 100 µM | > 100 µM | > 100 µM | > 100 µM | 42.7 µM | 63.5 µM | > 100 µM | 97.4 µM | > 100 µM | > 100 µM | > 100 µM | 81.1 µM | > 100 µM | 38.4 µM | 20.2 µM
